Converted amounts (≈) assume the structure as drawn. “Also recorded” adds a separate entry of the source. Where two headings read alike, the source gives them in different places.
Key:
herpes and other viruses = conditions: cited from earlier work
[1] = Cytotoxicity in human foreskin fibroblast cells; assay type: cell-based
Description: Human foreskin fibroblast (HFF) cells obtained from newborns were prepared and suspended in minimum essential medium (MEM) and supplemented with 10% fetal bovine serum (FBS). Freshly processed cells were incubated for 24 hours at 37° C. in well tissue culture plates in a CO2 incubator (E. R. Kern, J. Infect. Dis., 128:290 (1973)). Assays for cytotoxicity and varicella zoster virus replication were carried out in these culture wells following reported procedures (see, for example, R. J. Ryback and E. R. Kern et al, Antimicrobial Agents and Chemotherapy, 44:1506 (2000); Y. L. Qiu et al, J. Med. Chem., 41: 10 (1998); and Y. L. Qiu et al, J. Med. Chem., 41: 5257 (1998)). Drug concentrations were diluted six times from 100 μg/ml down to 0.03 μg/ml in MEM/FBS solution. A selective index of 10 is considered significant.

Varicella zoster virus [2] = experiment: Varicella zoster virus replication in cultures of human foreskin fibroblast cells; assay type: cell-based; conditions: human; VZV in HFF cells; read-out: SI selective index of CC50/EC50
Description: (§1) Human foreskin fibroblast (HFF) cells obtained from newborns were prepared and suspended in minimum essential medium (MEM) and supplemented with 10% fetal bovine serum (FBS). […] Drug concentrations were diluted six times from 100 μg/ml down to 0.03 μg/ml in MEM/FBS solution. A selective index of 10 is considered significant.

Varicella Zoster Virus [3] = experiment: as above; assay type: cell-based; conditions: for EC50: Human alphaherpesvirus 3, read-out: EC50 effective concentration required to inhibit viral replication by 50%; for EC50 / EC90: VZV in HFF cells; for EC90: Human alphaherpesvirus 3, read-out: EC90 effective concentration required to inhibit viral replication by 90%; for replication of varicella zoster virus in human cell cultures: statement in words
Description: as §1

herpes simplex virus-1 = conditions: rabbit kidney cell cultures; cited from earlier work
varicella zoster virus [4] = experiment: Shingles episode in a person; conditions: oral 400 mg 2×/day
herpes labialis (HSV-1) = conditions: 10% suspended in aqueous system with non-ionic surfactant and carrier; cited from earlier work
[5] = system: simian immunodeficiency virus (SIV); conditions: 12% cream, intravaginal application before exposure, six monkeys tested; cited from earlier work
[6] = ibuprofen 5%, ketoprofen 3%, lactic acid 5%, testosterone 1% in jojoba alcohol; malic acid 0.8%, citric acid 0.5% lotion; Viracol A Plus one drop
Description: Testosterone is a primary male hormone produced in the testes with effects on muscles, bones and sexual function. Testosterone replacement therapy for men with a deficiency, sometimes referred to as hypoganadism, is currently available in topical patches. […] This transdermal delivery technology can also be applied to corresponding estrogenic steroids such as estradiol for women.
(§2) The oil was tested on several persons for relief of minor muscle and joint pains.
(§3) The oil was tested topically on several persons for relief of minor muscle and joint pains.
Malic Acid also known as hydroxysuccinic acid, occurs naturally in apples and is sometimes referred to as apple acid. It is used as a general purpose acidulent in food products.
For the next 8 days […] spread 1-2 drops twice each day on the 2.5 inch diameter outbreak of small blisters on […] arm, and 4-6 drops twice each day on the blisters at […] waist.

[7] = Topical relief of muscle and joint pain in persons; assay type: in vivo, human; conditions: ibuprofen 5%, ketoprofen 3% (2-5%) in jojoba alcohol with 1% alpha-d-tocopherol, several drops
Description: Some persons using these medications experience gastrointestinal side effects.
as §2, §3

Structure (SMILES): O=C(O)/C=C/C(=O)O [Fumaric acid, trans 2-butenedioic acid]
- viral replication inhibition activity in cell cultures (herpes and other viruses): viral replication inhibition
- CC50 [1]: > 100 µg/mL
- selectivity ratio (Varicella zoster virus [2]): > 666
- EC50 (Varicella Zoster Virus [3]): 0.15 µg/mL (≈ 1.29 µM)
- EC90 (Varicella Zoster Virus [3]): 0.6 µg/mL (≈ 5.17 µM)
- replication of varicella zoster virus in human cell cultures (Varicella Zoster Virus [3]): inhibit replication
- herpes simplex virus-1 replication (herpes simplex virus-1): inhibitors

Structure (SMILES): Nc1nc2c(ncn2COCCO)c(=O)[nH]1 [Acyclovir, reference compound]
- side effects (varicella zoster virus [4]): diarrhea and headache
- change in shingles (varicella zoster virus [4]; after several days): no change
- CC50 ([1]; stationary HFF cells): > 100 µg/mL
- EC50 (Varicella Zoster Virus [3]): 0.04 µg/mL (≈ 0.178 µM)
- EC90 (Varicella Zoster Virus [3]): 0.09 µg/mL (≈ 0.4 µM)

Structure (SMILES): CC(O)C(=O)O (stereo not drawn) [Lactic Acid]
- viral replication inhibition activity in cell cultures (herpes and other viruses): viral replication inhibition activity

Structure (SMILES): CCCCCCCCCCCCCCCCCCCCCCO [n-docosanol, n-Docosanol]
- mean healing time of lesions (herpes labialis (HSV-1)): shortened
- monkeys in which transmission was prevented [5]: five

Structure (SMILES): O=C(O)CC(O)C(=O)O (stereo not drawn) [Malic Acid, hydroxysuccinic acid]
- viral replication inhibition activity in cell cultures (herpes and other viruses): viral replication inhibition activity

Structure (SMILES): C[C@]12CC[C@H]3[C@@H](CCC4=CC(=O)CC[C@@]43C)[C@@H]1CC[C@@H]2O [testosterone, Testosterone]
- absorption into human skin, residue, irritation [6]: leaves no residue

Structure (SMILES): O=C(O)CO [Glycolic Acid]
- viral replication inhibition activity in cell cultures (herpes and other viruses): viral replication inhibition activity

Structure (SMILES): CC(C)Cc1ccc(C(C)C(=O)O)cc1 (stereo not drawn) [Ibuprofen, alpha-methyl-4(2-methylpropyl)benzeneacetic acid]
- pain relief on topical application [7]: successfully relieved pain; also recorded: relieving pain

Structure (SMILES): O=C(O)CC(=O)O [Malonic acid, propanedioic acid]
- CC50 [1]: > 100 µg/mL
- selectivity ratio (Varicella zoster virus [2]): > 3330
- EC50 (Varicella Zoster Virus [3]): < 0.03 µg/mL
- EC90 (Varicella Zoster Virus [3]): < 0.03 µg/mL
- replication of varicella zoster virus in human cell cultures (Varicella Zoster Virus [3]): inhibit replication
- herpes simplex virus-1 replication (herpes simplex virus-1): inhibitors

Structure (SMILES): O=C(O)CCC(=O)O [Succinic acid, Succinic Acid]
- viral replication inhibition activity in cell cultures (herpes and other viruses): viral replication inhibition activity

Structure (SMILES): CC(C(=O)O)c1cccc(C(=O)c2ccccc2)c1 (stereo not drawn) [Ketoprofen, 3-benzoyl-alpha-methylbenzeneacetic acid]
- pain relief on topical application [7]: relieving pain
- pain relief on topical application ([7]; listed as ketoprofen): successfully relieved pain

Structure (SMILES): O=C(O)CC(O)(CC(=O)O)C(=O)O [Citric Acid]
- viral replication inhibition activity in cell cultures (herpes and other viruses): viral replication inhibition activity

Structure (SMILES): CC(=O)C(=O)O [Pyruvic acid, Pyruvic Acid]
- viral replication inhibition activity in cell cultures (herpes and other viruses): viral replication inhibition activity

— patent publication US20050203187A1, “Formulations useful for the treatment of varicella zoster virus infections and methods for the use thereof” (priority 1998, published 2005)
